Laboratory results as given in paper PMC9898036, “VIP152 is a selective CDK9 inhibitor with pre-clinical in vitro and in vivo efficacy in chronic lymphocytic leukemia” (Leukemia, 2022).

Assays:
[1] = molecular target: ACVR2B (Homo sapiens, UniProt Q13705); test: KINOMEscan: ACVR2B; assay type: binding; details: 1000 nM, read-out: Percent Control
[2] = molecular target: MTOR (Homo sapiens, UniProt P42345); test: KINOMEscan: MTOR; assay type: binding; details: 1000 nM, read-out: Percent Control
[3] = molecular target: Serotonin (5-Hydroxytryptamine) 5-HT1A) (Homo sapiens, UniProt P08908); test: Eurofins Diversity Panel; assay type: binding; details: hum, Conc. 10 μM
[4] = molecular target: ACVR2A (Homo sapiens, UniProt P27037); test: KINOMEscan: ACVR2A; assay type: binding; details: 1000 nM, read-out: Percent Control
[5] = molecular target: SLK (Homo sapiens, UniProt Q9H2G2); test: KINOMEscan: SLK; assay type: binding; details: 100 nM, read-out: Percent Control
[6] = molecular target: YSK1 (Homo sapiens, UniProt O00506); test: KINOMEscan: YSK1; assay type: binding; details: 100 nM, read-out: Percent Control
Sequence of YSK1 (O00506 whole entry): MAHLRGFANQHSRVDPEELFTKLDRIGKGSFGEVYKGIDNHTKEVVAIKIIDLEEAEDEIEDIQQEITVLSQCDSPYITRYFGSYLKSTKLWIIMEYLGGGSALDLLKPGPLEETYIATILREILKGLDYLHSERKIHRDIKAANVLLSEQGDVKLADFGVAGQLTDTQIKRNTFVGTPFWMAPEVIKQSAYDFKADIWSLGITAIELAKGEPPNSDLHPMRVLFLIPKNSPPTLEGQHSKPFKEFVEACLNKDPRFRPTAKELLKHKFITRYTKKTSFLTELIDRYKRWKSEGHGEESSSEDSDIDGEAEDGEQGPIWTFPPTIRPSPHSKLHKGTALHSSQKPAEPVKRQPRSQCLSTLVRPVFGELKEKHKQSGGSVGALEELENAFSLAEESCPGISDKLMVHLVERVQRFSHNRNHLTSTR

[7] = molecular target: ZAP70 (Homo sapiens, UniProt P43403); test: KINOMEscan: ZAP70; assay type: binding; details: 100 nM, read-out: Percent Control
Sequence of ZAP70 (P43403 whole entry): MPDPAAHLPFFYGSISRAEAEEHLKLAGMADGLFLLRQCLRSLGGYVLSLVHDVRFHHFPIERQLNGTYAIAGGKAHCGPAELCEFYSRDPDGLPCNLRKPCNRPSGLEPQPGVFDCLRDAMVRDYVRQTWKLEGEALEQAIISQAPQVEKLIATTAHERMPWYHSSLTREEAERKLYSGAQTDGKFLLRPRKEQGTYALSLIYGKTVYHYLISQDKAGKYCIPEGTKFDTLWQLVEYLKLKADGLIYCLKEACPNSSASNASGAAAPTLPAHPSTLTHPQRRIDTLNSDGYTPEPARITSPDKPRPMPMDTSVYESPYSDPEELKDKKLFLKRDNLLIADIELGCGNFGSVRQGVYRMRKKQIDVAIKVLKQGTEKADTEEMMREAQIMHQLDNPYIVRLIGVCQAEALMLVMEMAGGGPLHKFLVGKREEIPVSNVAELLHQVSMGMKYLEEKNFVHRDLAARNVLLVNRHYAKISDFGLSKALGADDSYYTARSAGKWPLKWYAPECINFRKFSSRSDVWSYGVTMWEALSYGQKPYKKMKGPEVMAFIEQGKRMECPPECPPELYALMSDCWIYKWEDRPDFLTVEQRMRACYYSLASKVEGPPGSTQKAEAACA

[8] = molecular target: ERN1 (Homo sapiens, UniProt O75460); test: KINOMEscan: ERN1; assay type: binding; details: 1000 nM, read-out: Percent Control
Sequence of ERN1 (O75460 19-977): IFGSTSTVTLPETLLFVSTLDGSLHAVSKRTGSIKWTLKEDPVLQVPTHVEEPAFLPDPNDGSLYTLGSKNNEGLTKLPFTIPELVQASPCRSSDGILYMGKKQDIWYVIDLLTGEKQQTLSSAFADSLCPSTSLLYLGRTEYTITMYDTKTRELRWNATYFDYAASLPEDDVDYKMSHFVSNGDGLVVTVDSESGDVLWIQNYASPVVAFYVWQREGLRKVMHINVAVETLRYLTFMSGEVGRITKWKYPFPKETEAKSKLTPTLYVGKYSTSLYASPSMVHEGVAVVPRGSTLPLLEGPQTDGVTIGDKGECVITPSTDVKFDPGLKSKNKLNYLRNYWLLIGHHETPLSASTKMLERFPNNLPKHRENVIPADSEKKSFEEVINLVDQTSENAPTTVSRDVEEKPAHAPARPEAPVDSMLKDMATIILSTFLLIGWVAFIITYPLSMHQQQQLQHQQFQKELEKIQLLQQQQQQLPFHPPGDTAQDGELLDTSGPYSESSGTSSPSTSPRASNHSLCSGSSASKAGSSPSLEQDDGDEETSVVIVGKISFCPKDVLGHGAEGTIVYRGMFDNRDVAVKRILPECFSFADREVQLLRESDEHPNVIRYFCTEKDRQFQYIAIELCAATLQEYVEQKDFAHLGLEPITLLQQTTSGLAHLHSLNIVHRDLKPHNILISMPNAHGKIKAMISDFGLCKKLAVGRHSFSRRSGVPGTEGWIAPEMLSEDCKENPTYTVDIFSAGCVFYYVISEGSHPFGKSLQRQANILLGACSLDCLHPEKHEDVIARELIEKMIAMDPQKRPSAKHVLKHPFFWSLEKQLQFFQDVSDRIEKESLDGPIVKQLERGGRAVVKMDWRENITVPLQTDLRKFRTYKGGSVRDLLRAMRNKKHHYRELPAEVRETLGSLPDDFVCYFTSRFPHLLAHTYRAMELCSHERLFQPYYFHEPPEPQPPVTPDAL

[9] = tested on: Glutamate, NMDA, Agonism; test: Eurofins Diversity Panel; assay type: binding; details: rat, Conc. 10 μM
[10] = molecular target: BMPR2 (Homo sapiens, UniProt Q13873); test: KINOMEscan: BMPR2; assay type: binding; details: 1000 nM, read-out: Percent Control
[11] = molecular target: ACVRL1 (Homo sapiens, UniProt P37023); test: KINOMEscan: ACVRL1; assay type: binding; details: 1000 nM, read-out: Percent Control
[12] = molecular target: RET(V804L) (Homo sapiens, UniProt P07949, V804L); test: KINOMEscan: RET(V804L); assay type: binding; details: 100 nM, read-out: Percent Control
Sequence of RET(V804L) (P07949 29-1114 V804L): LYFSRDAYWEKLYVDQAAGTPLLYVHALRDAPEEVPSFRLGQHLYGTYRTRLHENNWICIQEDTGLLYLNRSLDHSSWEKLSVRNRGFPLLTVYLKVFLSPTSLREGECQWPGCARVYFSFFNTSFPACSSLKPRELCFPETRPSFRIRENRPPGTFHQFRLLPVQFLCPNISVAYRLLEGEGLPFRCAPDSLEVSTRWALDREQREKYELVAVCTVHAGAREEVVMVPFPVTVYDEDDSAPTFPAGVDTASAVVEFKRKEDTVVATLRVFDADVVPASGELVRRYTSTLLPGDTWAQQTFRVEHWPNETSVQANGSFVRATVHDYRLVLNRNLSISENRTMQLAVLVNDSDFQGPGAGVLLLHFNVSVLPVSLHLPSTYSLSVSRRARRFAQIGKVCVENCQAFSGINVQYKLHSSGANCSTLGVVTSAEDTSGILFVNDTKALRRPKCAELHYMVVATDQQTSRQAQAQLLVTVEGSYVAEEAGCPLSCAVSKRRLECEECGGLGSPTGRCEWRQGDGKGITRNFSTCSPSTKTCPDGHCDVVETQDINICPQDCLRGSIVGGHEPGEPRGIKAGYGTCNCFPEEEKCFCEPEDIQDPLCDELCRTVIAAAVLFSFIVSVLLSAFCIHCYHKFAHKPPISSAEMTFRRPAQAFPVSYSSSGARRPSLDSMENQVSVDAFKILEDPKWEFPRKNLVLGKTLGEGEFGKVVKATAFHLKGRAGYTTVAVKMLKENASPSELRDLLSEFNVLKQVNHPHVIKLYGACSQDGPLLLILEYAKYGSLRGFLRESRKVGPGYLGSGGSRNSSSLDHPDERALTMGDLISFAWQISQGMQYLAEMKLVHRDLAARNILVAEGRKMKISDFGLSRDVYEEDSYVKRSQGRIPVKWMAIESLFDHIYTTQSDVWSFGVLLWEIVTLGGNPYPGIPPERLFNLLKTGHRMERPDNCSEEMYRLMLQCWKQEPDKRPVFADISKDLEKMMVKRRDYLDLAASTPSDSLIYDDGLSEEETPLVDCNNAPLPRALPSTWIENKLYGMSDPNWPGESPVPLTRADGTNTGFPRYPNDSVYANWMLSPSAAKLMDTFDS

[13] = molecular target: EPHA5 (Homo sapiens, UniProt P54756); test: KINOMEscan: EPHA5; assay type: binding; details: 1000 nM, read-out: Percent Control
[14] = tested on: HG-3 and MEC-1 cell lines; test: Western blot of treated CLL cell lines; assay type: cell-based, human
[15] = molecular target: ROCK2 (Homo sapiens, UniProt O75116); test: KINOMEscan: ROCK2; assay type: binding; details: 100 nM, read-out: Percent Control
[16] = molecular target: Dopamine D4.2 (Homo sapiens, UniProt P21917, DEL265-296); test: Eurofins Diversity Panel; assay type: binding; details: hum, Conc. 10 μM
Sequence of Dopamine D4.2 (P21917 with tags, fused parts or gaps DEL265-296): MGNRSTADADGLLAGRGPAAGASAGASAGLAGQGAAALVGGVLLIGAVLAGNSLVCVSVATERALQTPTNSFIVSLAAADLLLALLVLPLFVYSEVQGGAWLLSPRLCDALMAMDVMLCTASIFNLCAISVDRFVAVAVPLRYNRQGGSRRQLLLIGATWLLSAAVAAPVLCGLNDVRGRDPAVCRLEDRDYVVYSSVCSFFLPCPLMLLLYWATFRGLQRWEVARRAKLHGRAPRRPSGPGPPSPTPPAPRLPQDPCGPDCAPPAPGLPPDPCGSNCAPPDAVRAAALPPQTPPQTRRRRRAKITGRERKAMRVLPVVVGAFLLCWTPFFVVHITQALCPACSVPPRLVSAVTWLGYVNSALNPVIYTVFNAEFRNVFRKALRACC

[17] = molecular target: IRAK1 (Homo sapiens, UniProt P51617); test: KINOMEscan: IRAK1; assay type: binding
Sequence of IRAK1 (P51617 whole entry): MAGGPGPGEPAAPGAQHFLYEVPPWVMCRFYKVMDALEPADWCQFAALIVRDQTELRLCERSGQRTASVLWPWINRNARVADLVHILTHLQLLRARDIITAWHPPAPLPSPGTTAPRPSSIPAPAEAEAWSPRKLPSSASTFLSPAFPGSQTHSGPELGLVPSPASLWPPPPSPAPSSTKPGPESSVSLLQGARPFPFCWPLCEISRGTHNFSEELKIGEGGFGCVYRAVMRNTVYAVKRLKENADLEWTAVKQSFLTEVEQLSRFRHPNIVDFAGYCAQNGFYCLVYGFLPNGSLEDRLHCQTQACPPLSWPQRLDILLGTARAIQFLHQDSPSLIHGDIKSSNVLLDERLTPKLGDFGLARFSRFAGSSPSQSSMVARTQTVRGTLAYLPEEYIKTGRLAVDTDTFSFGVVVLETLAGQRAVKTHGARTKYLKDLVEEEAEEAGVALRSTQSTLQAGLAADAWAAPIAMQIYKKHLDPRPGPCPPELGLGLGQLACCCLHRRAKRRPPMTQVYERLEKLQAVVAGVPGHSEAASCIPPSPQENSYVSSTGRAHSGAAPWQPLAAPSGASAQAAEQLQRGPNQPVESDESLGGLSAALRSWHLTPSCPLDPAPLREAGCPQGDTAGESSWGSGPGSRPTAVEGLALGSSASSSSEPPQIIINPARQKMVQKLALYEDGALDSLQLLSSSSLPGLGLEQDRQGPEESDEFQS
Method: The structure and synthesis of VIP152 were recently described by Lücking et al.. (Fig. 1A); however, the selectivity of the molecule in cellular systems has yet to be explored. […] We also performed this experiment at 1000 nM, where CDK9 was inhibited at 99%. […] We found a strong concordance between our data and those of Lücking when comparing the most inhibited kinases. Potential off-target effects of VIP152 were next tested in vitro at a concentration of 10 µM for off-target activity against a broad range of receptors, transporters, ion channels, and enzymes (n = 138) using the Eurofins Diversity Panel.
Kinomescan Kinase Profiling Assay
Kinomescan Assay was performed at DiscoverRX and described in Fabian, et al. 2005, Nat.
Biotechnol. In brief, kinases were produced and subsequently tagged with DNA for qPCR detection.
Streptavidin-coated magnetic beads were bound to biotinylated kinase ligands to serve as a solid support.
VIP152 was dissolved in DMSO and tested across a 10 serial threefold dilution set and compared to a test compound and a DMSO control. Kinases which were inhibited by VIP152 would not be bound to the solid-support resulting in decreased substrate for the qPCR reaction. Kinome map was produced via TreeSpot Analysis from DiscoverRX. […]
NanoBRETTM Target Engagement Assay Protocol […]
Complete 20X NanoBRET Tracer Reagent was prepared with Tracer Dilution Buffer and dispensed at a ratio of 1:20 Reagent to cells in the tube. The cell

[18] = molecular target: ABL2 (Homo sapiens, UniProt P42684); test: KINOMEscan: ABL2; assay type: binding; details: 1000 nM, read-out: Percent Control
[19] = molecular target: DYRK2 (Homo sapiens, UniProt Q92630); test: KINOMEscan: DYRK2; assay type: binding; details: 1000 nM, read-out: Percent Control
[20] = molecular target: T1, CDK9 in complex with Cyclin K (Homo sapiens, UniProt P50750); test: HotSpot radiometric kinase assay; assay type: biochemical; details: 10-dose series from 0.5 nM to 10 µM; vs dinaciclib, KB-0742, atuveciclib
T1 construct: host or cells: HEK293
Method: We next compared VIP152 to other CDK inhibitors currently in development. […] The compounds were tested in a 10-dose series from 0.5 nM to 10 µM against CDK9 in complex with Cyclin T1/T2/K, CDK7/Cyclin H, and GSK3α/β. […]
HotSpot Kinase Assay Protocol
Compounds tested via HotSpot Kinase Assay were sent to ReactionBio for the experiment. The […]
Kinase substrate was added to reaction buffer (20 mM Hepes (pH 7.5), 10 mM MgCl2, 1 mM EGTA, 0.01% Brij35, 0.02 mg/ml BSA, 0.1 mM Na3VO4, 2 mM DTT, 1% DMSO). Cofactors and kinases were gently added to the reaction buffer. Compounds to be tested were dissolved in 100% DMSO and were delivered into the kinase reaction mixture by Acoustic technology (Echo550; nanoliter range) and incubated for 20 min at room temperature. 32P-ATP was delivered into the reaction mixture and the reaction was allowed to proceed for 2 hours. Kinase activity was detected by P81 filter-binding method.

[21] = molecular target: AKT3 (Homo sapiens, UniProt Q9Y243); test: KINOMEscan: AKT3; assay type: binding; details: 1000 nM, read-out: Percent Control
[22] = molecular target: EGFR(L747-E749del, A750P) (Homo sapiens, UniProt P00533, A750P/DEL747-749); test: KINOMEscan: EGFR(L747-E749del, A750P); assay type: binding; details: 1000 nM, read-out: Percent Control
Sequence of EGFR(L747-E749del, A750P) (P00533 with tags, fused parts or gaps DEL747-749/A750P limits assumed): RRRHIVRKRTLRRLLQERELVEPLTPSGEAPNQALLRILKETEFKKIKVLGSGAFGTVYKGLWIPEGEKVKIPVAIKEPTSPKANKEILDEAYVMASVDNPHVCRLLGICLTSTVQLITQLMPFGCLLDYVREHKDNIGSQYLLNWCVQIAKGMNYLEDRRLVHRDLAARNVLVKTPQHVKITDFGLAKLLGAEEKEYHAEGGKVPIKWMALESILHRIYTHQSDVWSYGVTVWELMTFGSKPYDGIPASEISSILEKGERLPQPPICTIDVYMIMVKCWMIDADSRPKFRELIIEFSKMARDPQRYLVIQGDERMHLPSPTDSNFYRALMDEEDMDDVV

[23] = molecular target: KIT-autoinhibited (Homo sapiens, UniProt P10721); test: KINOMEscan: KIT-autoinhibited; assay type: binding; details: 1000 nM, read-out: Percent Control
[24] = molecular target: JNK3 (Homo sapiens, UniProt P53779); test: KINOMEscan: JNK3; assay type: binding; details: 1000 nM, read-out: Percent Control
Sequence of JNK3 (P53779 whole entry): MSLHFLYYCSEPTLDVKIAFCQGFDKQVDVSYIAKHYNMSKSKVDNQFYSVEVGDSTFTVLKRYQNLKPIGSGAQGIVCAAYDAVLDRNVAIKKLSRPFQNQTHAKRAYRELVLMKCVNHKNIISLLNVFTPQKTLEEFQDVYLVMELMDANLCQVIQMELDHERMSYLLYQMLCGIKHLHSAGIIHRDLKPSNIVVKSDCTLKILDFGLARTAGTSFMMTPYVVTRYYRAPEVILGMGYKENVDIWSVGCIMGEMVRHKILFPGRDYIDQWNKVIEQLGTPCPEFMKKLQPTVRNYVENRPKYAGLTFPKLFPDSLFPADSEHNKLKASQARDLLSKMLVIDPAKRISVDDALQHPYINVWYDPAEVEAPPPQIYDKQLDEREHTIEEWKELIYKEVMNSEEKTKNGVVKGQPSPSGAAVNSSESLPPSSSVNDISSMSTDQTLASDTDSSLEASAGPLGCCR

[25] = molecular target: EPHB2 (Homo sapiens, UniProt P29323); test: KINOMEscan: EPHB2; assay type: binding; details: 1000 nM, read-out: Percent Control

**Q.** COc1cc(F)ccc1-c1cc(Nc2cc(CS(C)(=N)=O)ccn2)ncc1F (centres unmarked) [VIP152] was tested. Which remaining binding at 1 µM [1] did it give?
**A.** 65%

**Q.** What about the remaining binding at 1 µM [2] of the same compound?
**A.** 100%

**Q.** And the inhibition at 10 µM [3]?
**A.** 13%

**Q.** What about the remaining binding at 1 µM [4] of the same compound?
**A.** 75%

**Q.** What about the remaining binding at 0.1 µM [5] of the same compound?
**A.** 91%

**Q.** And the remaining binding at 0.1 µM [6]?
**A.** 100%

**Q.** And the remaining binding at 0.1 µM [7]?
**A.** 99%

**Q.** What about the remaining binding at 1 µM [8] of the same compound?
**A.** 86%

**Q.** What about the “% Inh.” value [9] of the same compound?
**A.** 3%

**Q.** And the remaining binding at 1 µM [10]?
**A.** 93%

**Q.** And the remaining binding at 1 µM [11]?
**A.** 38%

**Q.** And the remaining binding at 0.1 µM [12]?
**A.** 100%

**Q.** And the remaining binding at 1 µM [13]?
**A.** 88%

**Q.** And the MCL1 protein levels ([14]; 0.1 µM, 8 h)?
**A.** decreased

**Q.** And the “Phosphorylation of serine 5 (marker of CDK7 activity)” value ([14]; 0.1 µM, 8 h)?
**A.** not diminished

**Q.** What about the “glycogen synthase phosphorylation at serine 641 (marker of GSK3α/β activity)” value ([14]; 0.1 µM, 8 h) of the same compound?
**A.** did not observe a decrease

**Q.** And the “phospho-serine 2 (pS2) of RNA Polymerase II” value ([14]; 0.1 µM, 8 h)?
**A.** decrease

**Q.** What about the MCL1 ([14]; 1 µM, across 24 h) of the same compound?
**A.** decreased

**Q.** And the c-MYC ([14]; 1 µM, across 24 h)?
**A.** decreased

**Q.** What about the pS2 ([14]; 1 µM, across 24 h) of the same compound?
**A.** decreased

**Q.** And the pS5 ([14]; 1 µM, across 24 h)?
**A.** minimal change

**Q.** What about the “PARP cleavage (induction of apoptosis)” value ([14]; beginning at six hours) of the same compound?
**A.** detect PARP cleavage

**Q.** And the remaining binding at 0.1 µM [15]?
**A.** 100%

**Q.** And the inhibition at 10 µM [16]?
**A.** 32%

**Q.** What about the inhibition at 1 µM ([17]; 1000 nM) of the same compound?
**A.** 98.4%

**Q.** What about the remaining binding at 0.1 µM ([17]; IRAK1, 100 nM, read-out: Percent Control) of the same compound?
**A.** 59%

**Q.** And the remaining binding at 1 µM ([17]; IRAK1, 1000 nM, read-out: Percent Control)?
**A.** 1.6%

**Q.** And the remaining binding at 1 µM [18]?
**A.** 65%

**Q.** And the remaining binding at 1 µM [19]?
**A.** 62%

**Q.** And the “potency versus the other inhibitors tested” value [20]?
**A.** higher potency

**Q.** What about the remaining binding at 1 µM [21] of the same compound?
**A.** 98%

**Q.** And the remaining binding at 1 µM [22]?
**A.** 80%

**Q.** What about the remaining binding at 1 µM [23] of the same compound?
**A.** 100%

**Q.** What about the remaining binding at 1 µM [24] of the same compound?
**A.** 82%

**Q.** And the remaining binding at 1 µM [25]?
**A.** 92%
